Patent publication US7893056B2, “Peptide deformylase inhibitors” (GlaxoSmithKline LLC, priority 2007, dated 2011)
In brackets after ≈: the same amount, converted by molar mass. Several values for one entry are separate records, joined by “and”; a condition that tells them apart may be missing. Identical values can stand only once.

Experiments:
Test in all cases: Antimicrobial activity assay, broth microdilution MIC
Assay type in all cases: cell-based
[1] = test system: Moraxella catarrhalis 1502; conditions: others: individual runs; for MIC: Moraxella catarrhalis, 1502, Examples 24 and 63: median of all results obtained
Description: (§1) Whole-cell antimicrobial activity was determined by broth microdilution using the Clinical and Laboratory Standards Institute (CLSI, formerly NCCLS) recommended methodology (NCCLS Document M7-A6, “Methods for Dilution Susceptibility Tests for Bacteria that Grow Aerobically—Approved Standard Sixth Edition”, 2003). Compounds were tested in serial two-fold dilutions ranging from 64 to 0.06 μg/mL. A panel of 12 strains was evaluated in the assay. This panel consisted of the following laboratory strains: Staphylococcus aureus Oxford, Staphylococcus aureus WCUH29, Enterococcus faecalis 1, Enterococcus faecalis 7, Haemophilus influenzae Q1, Haemophilus influenzae NEMC1, Moraxella catarrhalis 1502, Streptococcus pneumoniae 1629, Streptococcus pneumoniae N1387, Streptococcus pneumoniae Ery2, Escherichia coli 7623 (AcrABEFD+) and Escherichia coli 120 (AcrAB−). The minimum inhibitory concentration (MIC) was determined as the lowest concentration of compound that inhibited visible growth. A mirror reader was used to assist in determining the MIC endpoint.

[2] = test system: Staphylococcus aureus WCUH29; conditions: others: individual runs; for MIC: Staphylococcus aureus, WCUH29, Examples 24 and 63: median of all results obtained, read-out: MIC, S. aureus WCUH29
Description: as §1

[3] = test system: Streptococcus pneumoniae Ery2; conditions: Examples 24 and 63: median of all results obtained, others: individual runs, read-out: MIC, S. pneumoniae ERY2
Description: as §1

Enterococcus faecalis 1 = conditions: others: individual runs; for MIC: Enterococcus faecalis, 1, Examples 24 and 63: median of all results obtained, read-out: MIC, E. faecalis I; for MIC, E. faecalis I: Examples 24 and 63: median of all results obtained
Description: as §1

Enterococcus faecalis 7 = conditions: others: individual runs; for MIC: Enterococcus faecalis, 7, Examples 24 and 63: median of all results obtained, read-out: MIC, E. faecalis 7; for MIC, E. faecalis 7: Examples 24 and 63: median of all results obtained
Description: as §1

[4] = test system: Staphylococcus aureus Oxford; conditions: Examples 24 and 63: median of all results obtained, others: individual runs; for MIC: Staphylococcus aureus, read-out: MIC, S. aureus Oxford
Description: as §1

[5] = test system: Streptococcus pneumoniae 1629; conditions: Examples 24 and 63: median of all results obtained, others: individual runs, read-out: MIC, S. pneumoniae 1629
Description: as §1

[6] = test system: Streptococcus pneumoniae N1387; conditions: Examples 24 and 63: median of all results obtained, others: individual runs, read-out: MIC, S. pneumoniae N1387
Description: as §1

[7] = test system: Escherichia coli 7623 (AcrABEFD+); conditions: Examples 24 and 63: median of all results obtained; others: individual runs
Description: as §1

[8] = Examples 24 and 63: median of all results obtained

Cc1nc(NNC(=O)[C@H](CC2CCCC2)CN(O)C=O)c(F)c(N2CCN3CCOC[C@@H]3C2)n1 [Example 24, [(2R)-2-(Cyclopentylmethyl)-3-(2-{5-fluoro-6-[(9aS)-hexahydropyrazino[2,1-c][1,4]oxazin-8(1H)-yl]-2-methyl-4-pyrimidinyl}hydrazino)-3-oxopropyl]hydroxyformamide]
MIC [1]: 0.375 µg/mL (≈ 0.782 µM) | MIC [2]: 0.375 µg/mL (≈ 0.782 µM) | MIC [3]: 0.375 µg/mL (≈ 0.782 µM)

C[C@@H]1CN(C)CCN1c1nc(Cl)nc(NNC(=O)[C@H](CC2CCCC2)CN(O)C=O)c1F [Example 63, [(2R)-3-(2-{2-Chloro-6-[(2R)-2,4-dimethyl-1-piperazinyl]-5-fluoro-4-pyrimidinyl}hydrazino)-2-(cyclopentylmethyl)-3-oxopropyl]hydroxyformamide]
MIC (Enterococcus faecalis 1): 16 µg/mL (≈ 33.9 µM) | MIC (Enterococcus faecalis 7): 64 µg/mL (≈ 136 µM) | MIC [1]: 0.125 µg/mL (≈ 0.265 µM) | MIC [4]: 1 µg/mL (≈ 2.12 µM) | MIC [2]: 0.5 µg/mL (≈ 1.06 µM) | MIC [5]: 0.5 µg/mL (≈ 1.06 µM) | MIC [3]: 0.25 µg/mL (≈ 0.53 µM) | MIC [6]: 0.25 µg/mL (≈ 0.53 µM)

Cc1nc(NNC(=O)[C@H](CC2CCCC2)CN(O)C=O)c(F)c(N2CCN(C)C[C@H]2C)n1 [Example 109, [(2R)-2-(Cyclopentylmethyl)-3-(2-{6-[(2R)-2,4-dimethyl-1-piperazinyl]-5-fluoro-2-methyl-4-pyrimidinyl}hydrazino)-3-oxopropyl]hydroxyformamide]
MIC (Enterococcus faecalis 1): 64 µg/mL (≈ 142 µM) | MIC, E. faecalis I (Enterococcus faecalis 1): 64, >64 μg/ml | MIC (Enterococcus faecalis 7): > 64 µg/mL | MIC [1]: 0.25 µg/mL (≈ 0.554 µM) | MIC [4]: 2 µg/mL (≈ 4.43 µM) | MIC [2]: 0.5 µg/mL (≈ 1.11 µM) | MIC [5]: 0.5 µg/mL (≈ 1.11 µM) | MIC [3]: 0.25 µg/mL (≈ 0.554 µM) | MIC [6]: 0.25 µg/mL (≈ 0.554 µM)

CN1CCN(c2nc(Cl)nc(NNC(=O)[C@H](CC3CCCC3)CN(O)C=O)c2F)CC12CC2 [Example 172, [(2R)-3-{2-[2-Chloro-5-fluoro-6-(4-methyl-4,7-diazaspiro[2.5]oct-7-yl)-4-pyrimidinyl]hydrazino}-2-(cyclopentylmethyl)-3-oxopropyl]hydroxyformamide]
MIC (Enterococcus faecalis 1): 16 µg/mL (≈ 33.1 µM) | MIC, E. faecalis 7 (Enterococcus faecalis 7): 8 µg/mL and 64 µg/mL | MIC, E. coli 7623 AcrABEFD+ [7]: 4 µg/mL and 16 µg/mL | MIC, M. catarrhalis 1502 [1, 8]: ≤ 0.06 µg/mL and 0.125 µg/mL | MIC, S. aureus Oxford [4]: 2 µg/mL (≈ 4.13 µM) | MIC [4]: 1 µg/mL (≈ 2.07 µM) | MIC [2]: 0.5 µg/mL (≈ 1.03 µM) | MIC [5]: 0.5 µg/mL (≈ 1.03 µM) | MIC [3]: 0.125 to 0.25 µg/mL (≈ 0.258 to 0.517 µM) | MIC [6]: 0.125 µg/mL (≈ 0.258 µM)

Cc1nc(NNC(=O)[C@H](CC2CCCC2)CN(O)C=O)c(F)c(N2CCN(C)C3(CC3)C2)n1 [Example 275, ((2R)-2-(Cyclopentylmethyl)-3-{2-[5-fluoro-2-methyl-6-(4-methyl-4,7-diazaspiro[2.5]oct-7-yl)-4-pyrimidinyl]hydrazino}-3-oxopropyl)hydroxyformamide]
MIC (Enterococcus faecalis 1): 32 µg/mL (≈ 69 µM) | MIC, E. faecalis I (Enterococcus faecalis 1): 64 µg/mL (≈ 138 µM) | MIC, E. faecalis 7 (Enterococcus faecalis 7): 16 µg/mL and 64 µg/mL | MIC, E. coli 7623 AcrABEFD+ [7]: 4 µg/mL and 16 µg/mL | MIC [1]: 0.25 µg/mL (≈ 0.539 µM) | MIC, S. aureus Oxford [4]: 4 µg/mL (≈ 8.63 µM) | MIC [4]: 2 µg/mL (≈ 4.31 µM) | MIC, S. aureus WCUH29 [2, 8]: 1 µg/mL (≈ 2.16 µM) | MIC [2]: 0.5 µg/mL (≈ 1.08 µM) | MIC [5]: 1 µg/mL (≈ 2.16 µM) | MIC [3]: 0.5 µg/mL (≈ 1.08 µM) | MIC [6]: 0.5 µg/mL (≈ 1.08 µM)
